“Also recorded” adds a separate entry of the source.
Tests used:
Live HeLa cells [1] = assay: Live cell nuclear staining, fluorescence microscopy vs SiR-Hoechst (Example 2); assay type: cell-based; conditions: 1 μM and 2 μM
Method: The fluorescence intensity of Compound 4 was compared to SiR-Hoechst (Spirochrome, Switzerland) using fluorescence microscopy. Live HeLa cells were stained with SiR-Hoechst or Compound 4 at 1 μM or 2 μM for 30 minutes at 37° C. After washing with LCIS buffer to remove excess dye, images from 5 replicates were collected using the Cy5 channel of a fluorescence microscope and analyzed using HCS Studio software. Representative images of cells are shown in FIGS. 3A-3B (stained with SiR-Hoechst) and FIGS. 3C-3D (stained with Compound 4). […] The mean nuclear signal intensity was 48% higher in the cells stained with Compound 4 than in the cells stained with SiR-Hoechst, based on averaging the ratios of fluorescence intensity at 1 μM and 2 μM.

[2] = Excitation and emission maxima of compounds dissolved in solvents; assay type: physicochemical
Method: Certain compounds were tested when dissolved in solvents. Three replicates were performed to determine the excitation and emission maxima.

tubulin [3] = assay: Tubulin staining of live cells with docetaxel probes vs SiR-Taxol (Examples 3, 13); assay type: cell-based; conditions: live HeLa, 0.5 μM, 30 min 37 °C
Method: The fluorescence intensity of Compound 5 (a tubulin probe using docetaxel as the target-binding moiety) was compared to SiR-Taxol (Spirochrome, Switzerland). Live HeLa cells were stained with 0.5 μM Compound 5 or SiR-Taxol for 30 minutes at 37° C. and prepared for imaging. Images are shown in FIGS. 4A-4B (stained with Compound 5), and FIGS. 4C-4D (stained with SiR-Taxol).
The fluorescence intensity of two diasteromers of Compound 5 and a mixture of two isomers was compared to SiR-Taxol (Spirochrome, Switzerland). Live HeLa cells were stained with 0.5 μM of each compound for 30 minutes at 37° C. and prepared for imaging.

tubulin [4] = assay: Immunofluorescence tubulin staining with dye-labeled antibody conjugates vs AF647 (Example 9); assay type: cell-based, mouse
Method: The fluorescence intensity of SiR conjugates, Compound 10A (DOL=15) and Compound 10A (DOL=10), where DOL is the degree of labeling, were compared to an AF647 conjugate using fluorescence microscopy. Live mouse cells were stained with mouse anti-tubulin conjugated to AF647 (shown in FIG. 12A), or mouse anti-tubulin conjugated with Compound 10A (DOL=15 shown in FIG. 12B) at increasing concentrations for 60 minutes at 25° C. After washing with PBS buffer to remove excess dye, images were collected using the Cy5 channel of a fluorescence microscope and analyzed using integrated software. […] The SiR dyes gave images 6-8 fold dimmer that AF647 in the Cy5 channel, consistent with the shifted maxima discussed above. […] Little to no photobleaching was observed during imaging.

[5] = Fluorescence characteristics, dye only dissolved in water; assay type: physicochemical; conditions: for Emission in water (λem) / absorption in water (λabs): Table 6, in water; for shift of absorption maxima to blue when each vinyl group was changed to a methyl: relative to Compound 11
Method: (§1) The fluorescence characteristics of various disclosed compounds and ALEXA FLUOR™ 647 dye (AF647) dissolved in water (dye only) or as goat anti-mouse (GAM) IgG conjugates dissolved in phosphate buffered saline (PBS) were determined. Three replicates were performed to determine the excitation and emission maxima and quantum yield. Quantum yield was measured for the dye only samples.
Experiments were performed to examine the effect of different SiR substitution patterns on absorption maxima using Compounds 10A, 11, 12, and 13. One or both of the vinyl groups of Compound 11 are replaced with methyl in Compounds 10A and 12, respectively. In Compound 13, one methyl group on each of the two exocyclic amines was eliminated relative to Compound 12. […] A 30 nm shift was observed when one methyl group on each of the two exocyclic amines was eliminated (Table 6). Therefore, modification of SiR dyes using groups linked to the SiR moiety through the Si have a smaller effect than the removal of methyl groups.

[6] = Fluorescence characteristics of goat anti-mouse (GAM) IgG conjugates in PBS; assay type: physicochemical; conditions: for Absorption of IgG conjugates / Emission of IgG conjugates: Table 6, IgG conjugates in PBS; for Max Abs / Max Em: GAM IgG conjugate in PBS
Method: as §1
The effect of conjugation of an SiR, in this example Compounds 8, 10A, and 12, to IgG on absorbance (shown in FIG. 11A) and on emission (shown in FIG. 11B) maxima were compared with IgG-AF647. The absorption and emission maxima of the SiR-conjugates (665 nm/690 nm) are approximately 20 nm red-shifted compared with AF647 conjugate. The emission maximum shifted 15 nm to red.

Fixed HeLa cells = assay: Fixed cell nuclear staining and photostability vs TO-PRO-3 (Example 4); assay type: cell-based; conditions: 1 μM, Cy5 channel
Method: The fluorescence intensity and photostability of Compound 7 were compared with TO-PRO-3, a fixed cell nucleic acid stain with far-red fluorescence. Fixed HeLa cells were stained with 1 μM Compound 7 or TO-PRO-3 for 30 minutes at RT and prepared for imaging using the Cy5 channel of a fluorescence microscope.

Live HeLa cells [7] = assay: Live cell nuclear staining with ESP-SiR isomers, HeLa (Example 12); assay type: cell-based; conditions: 1 μM, 30 min 37 °C
Method: The fluorescence intensity of each isomer of Compound 4 (Compound 4B and Compound 4C) was compared using fluorescence microscopy. A DMSO stock solution (1 mM) was used to prepare solutions of each isomer to a final concentration of 5, 2.5, 1.25 and 0.6 μM in PBS containing probenecid.
Live HeLa or A549 cells were stained with each concentration of isomer for 30 minutes at 37° C. After washing with LCIS buffer to remove excess dye, images from 5 replicates were collected using the Cy5 channel of a fluorescence microscope and analyzed using HCS Studio software. […] The mean nuclear signal intensity was almost 2-fold higher in both cell types stained with Compound 4B than in the cells stained with Compound 4C at each of the concentrations tested.
The fluorescence intensity of Compound 4B and 4C was compared to SiR-Hoechst (Spirochrome, Switzerland) using fluorescence microscopy. Live HeLa cells were stained with SiR-Hoechst or Compound 4B or 4C at 1 μM for 30 minutes at 37° C. After washing with LCIS buffer to remove excess dye, images from 5 replicates were collected using the Cy5 and D API channels of a fluorescence microscope and analyzed using HCS Studio software.

A549 cells = assay: Photobleaching of dye-labeled secondary antibody conjugates in fixed cells without anti-fade medium; assay type: cell-based; conditions: GAM antibody conjugates (13 DOL 4.7, 14 DOL 4.0, AF647 DOL 4.9); over 700 seconds exposure, no anti-fade medium
Method: A549 cells were plated at a density of 5,000 cells per well on Greiner 96 well plates and allowed to adhere overnight. The following day, they were treated for two hours at 37° C. with 50 μM etoposide to induce phosphorylation of pH2AX for antibody probing, then fixed for 20 minutes at room temperature in 4% PFA, prepared in PBS. After fixation, cells were rinsed 3× in PBS and permeabilized for 20 minutes with 0.1% Triton X-100, prepared in PBS. Following Triton treatment, cells were washed 3× in PBS and placed in blocking solution, made with 3% BSA in PBS. Each plate was treated with primary antibody, prepared in blocking solution at 5 μg/mL, either […]. Following incubation with primary antibody, cells were washed 3× in PBS and stored in blocking solution before probing with secondary antibody. Secondary antibody labeled with Compound 13 (DOL 4.7); Compound 14 (DOL 4.0) or AF647 (DOL 4.9) was prepared from 5 μg/mL in blocking solution and cells were incubated for one hour at room temperature before washing 3× in PBS and moving plates to the CX-5 CellInsight for quantification of signal. The fluorescent signal data was collected every second for over 700 seconds' period. […]
Fluorescence intensity was monitored in samples mounted without anti-fade medium over a period of about 12 minutes of exposure to excitatory light.

| Compound | Quantum Yield ([5]; Table 6) | Emission in water (λem) [5] | absorption in water (λabs) [5] | Absorption of IgG conjugates [6] | Emission of IgG conjugates [6] | Max Abs ([5]; Dye Only in water) | Max Em ([5]; Dye Only in water) | Quantum Yield ([5]; Dye Only in water) | Max Abs [6] | Max Em [6] | other results |
| --- | --- | --- | --- | --- | --- | --- | --- | --- | --- | --- | --- |
| CN1CCN(c2ccc3[nH]c(-c4ccc5[nH]c(-c6ccc(OCCCCNC(=O)CCSCC[Si]7(C)C8=CC(=[N+](C)C)C=CC8=C(c8ccccc8C(=O)[O-])c8ccc(N(C)C)cc87)cc6)nc5c4)nc3c2)CC1 (stereo not shown) [Compound 4] | – | – | – | – | – | – | – | – | – | – | mean nuclear signal intensity, higher than in cells stained with SiR-Hoechst (Live HeLa cells [1]; live HeLa, 30 min 37 °C, Cy5 channel, averaged ratios of fluorescence intensity): 48%; staining brightness compared with SiR-Hoechst (Live HeLa cells [1]; live cells): noticeably brighter |
| CC(=O)O[C@@]12CO[C@@H]1C[C@H](O)[C@@]1(C)C(=O)[C@H](O)C3=C(C)[C@@H](OC(=O)[C@H](O)[C@@H](NC(=O)CCCCCNC(=O)CCSCC[Si]4(C)C5=CC(=[N+](C)C)C=CC5=C(c5ccccc5C(=O)[O-])c5ccc(N(C)C)cc54)c4ccccc4)C[C@@](O)([C@@H](OC(=O)c4ccccc4)C12)C3(C)C (stereo partly shown) [Compound 5] | – | – | – | – | – | – | – | – | – | – | Max Abs ([2]; Solvent MeOH/HCl): 650 nm; Max Em ([2]; Solvent MeOH/HCl): 676 nm; fluorescence signal compared with SiR-Taxol (tubulin [3]): brighter signal than cells stained with SiR-Taxol |
| Si-vinyl-Si-methyl-N,N-tetramethyl-SiR [Compound 10A] | 41% | 678 nm | 666 nm | 668 nm | 688 nm | – | – | – | – | – | photobleaching during imaging / photostability vs AF647 (tubulin [4]): better photostability than AF647; target specificity, off-target or background fluorescence (tubulin [4]): no off-target or background fluorescence; brightness compared with AF647 (tubulin [4]; Cy5 channel): less bright than AF647; shift of absorption maxima to blue when each vinyl group was changed to a methyl [5]: about 5 nm |
| C[n+]1c(/C=C/C=C2\C=CN(CCC[N+](C)(C)C)c3ccccc32)sc2ccccc21 [TO-PRO-3, reference compound] | – | – | – | – | – | – | – | – | – | – | fluorescence after a 1 minute exposure to excitation light (Fixed HeLa cells): little to no fluorescence was observable; also recorded: more diminished |
| Si,Si-dimethyl-N, N-tetramethyl-SiR [Compound 12] | 45% | 673 nm | 661 nm | 664 nm | 683 nm | 661 nm | 673 nm | 0.45 | 662 nm | 681 nm | shift of absorption maxima to blue when each vinyl group was changed to a methyl [5]: about 5 nm |
| CN1CCN(c2ccc3nc(-c4ccc5nc(-c6ccc(OCCCCNC(=O)c7ccc(C(=O)[O-])c(C8=C9C=CC(=[N+](C)C)C=C9[Si](C)(C)c9cc(N(C)C)ccc98)c7)cc6)[nH]c5c4)[nH]c3c2)CC1 [SiR-Hoechst] | – | – | – | – | – | – | – | – | – | – | signal on the DAPI channel (Live HeLa cells [7]): almost no signals were observed |
| CN(C)c1ccc2c(c1)[Si](C)(C)C1=CC(=[N+](C)C)C=CC1=C2c1ccccc1C(=O)N1CCC(C(=O)O)CC1 [Compound 7A] | – | – | – | – | – | – | – | – | – | – | Max Abs ([2]; Solvent MeOH): 657 nm; Max Em ([2]; Solvent MeOH): 682 nm |
| CN1CCN(c2ccc3[nH]c(-c4ccc5[nH]c(-c6ccc(OCCCCNC(=O)C7CCN(C(=O)c8ccccc8C8=C9C=CC(=[N+](C)C)C=C9[Si](C)(C)c9cc(N(C)C)ccc98)CC7)cc6)nc5c4)nc3c2)CC1 [Compound 7] | – | – | – | – | – | – | – | – | – | – | Max Abs ([2]; Solvent TE): 672 nm; Max Em ([2]; Solvent TE): 678 nm; staining brightness, Compound 7 vs TO-PRO-3 (Fixed HeLa cells; 30 min RT): unexpectedly brighter than TO-PRO-3 staining; fluorescence after a 1 minute exposure to excitation light (Fixed HeLa cells): still retained substantial fluorescence |
| C=C[Si]1(C=C)c2cc(N(C)C)ccc2C2(OC(=O)c3ccccc32)c2ccc(N(C)C)cc21 [Compound 11, Si,Si-Divinyl-N,N-tetramethyl-SiR] | 38% | 683 nm | 670 nm | 671 nm | 692 nm | 670 nm | 683 nm | 0.38 | 671 nm | 693 nm | – |
| Si,Si-dimethyl-N, N-dimethyl-SiR [Compound 13] | 50% | 642 nm | 630 nm | 635 nm | 655 nm | 630 nm | 642 nm | 0.5 | 635 nm | 655 nm | shift of absorption maxima when one methyl group on each of the two exocyclic amines was eliminated ([5]; relative to Compound 12): 30 nm; resistance to photobleaching (A549 cells): substantially resistant to photobleaching; also recorded: much more resistant to photobleaching |

— patent publication US12258477B2, “Silicon-substituted rhodamine dyes and dye conjugates” (Life Technologies Corporation, priority 2018, dated 2025)
